ChEMBL document CHEMBL1201862, “PubChem BioAssay data set” (2004)
Active and inactive are the calls of the source. Rule as the data show it, for most assays here: actives have a measured EC50 and inactives only a lower limit.

Assays:
[1] = tested on: Streptococcus sp. 'group A'; assay: growth inhibition of control SK(-) GAS strain, dose response, counter-screen for streptokinase expression inhibitor project, luminescence, kanamycin, BacTiterGlo, confirmation (AID 1900); assay type: functional, organism-based
Streptococcus = assay: Group A Streptococcus viability loss, dose response, counter-screen for streptokinase expression inhibitor project, luminescence, BacTiterGlo (AID 1915); assay type: functional, organism-based;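 also: potency for reduction of bacterial viability or growth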
Cytochrome P450 2D6 = Cytochrome P450 2D6 (Homo sapiens, UniProt P10635);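 also: CYP2D6 member of a cytochrome P450 panel assay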
Cytochrome P450 2D6, sequence (P10635 whole entry): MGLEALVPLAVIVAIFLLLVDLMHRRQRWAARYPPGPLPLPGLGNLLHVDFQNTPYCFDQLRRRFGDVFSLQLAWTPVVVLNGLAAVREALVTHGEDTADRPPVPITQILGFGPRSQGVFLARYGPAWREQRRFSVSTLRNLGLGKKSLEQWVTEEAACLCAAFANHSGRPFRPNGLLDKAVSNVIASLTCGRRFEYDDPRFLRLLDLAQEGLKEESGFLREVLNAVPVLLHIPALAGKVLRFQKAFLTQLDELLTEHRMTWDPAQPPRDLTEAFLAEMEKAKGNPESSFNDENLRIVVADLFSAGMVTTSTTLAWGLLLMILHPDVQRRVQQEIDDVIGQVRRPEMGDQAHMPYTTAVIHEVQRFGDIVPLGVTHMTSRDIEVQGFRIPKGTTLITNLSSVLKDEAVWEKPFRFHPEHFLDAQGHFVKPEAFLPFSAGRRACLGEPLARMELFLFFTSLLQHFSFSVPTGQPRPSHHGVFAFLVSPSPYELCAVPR

Streptokinase A = molecular target: T1, Streptokinase A (Streptococcus pyogenes serotype M1, UniProt P10520); assay: S. pyogenes streptokinase expression inhibitors, potency, dose response, plasminogen activation absorbance, OD405 (AID 1914); assay type: functional, Streptococcus pyogenes M1 GAS;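 also: secreted streptokinase activity via plasminogen activation per viability signal from cell pellet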
T1 sequence (P10520 whole entry): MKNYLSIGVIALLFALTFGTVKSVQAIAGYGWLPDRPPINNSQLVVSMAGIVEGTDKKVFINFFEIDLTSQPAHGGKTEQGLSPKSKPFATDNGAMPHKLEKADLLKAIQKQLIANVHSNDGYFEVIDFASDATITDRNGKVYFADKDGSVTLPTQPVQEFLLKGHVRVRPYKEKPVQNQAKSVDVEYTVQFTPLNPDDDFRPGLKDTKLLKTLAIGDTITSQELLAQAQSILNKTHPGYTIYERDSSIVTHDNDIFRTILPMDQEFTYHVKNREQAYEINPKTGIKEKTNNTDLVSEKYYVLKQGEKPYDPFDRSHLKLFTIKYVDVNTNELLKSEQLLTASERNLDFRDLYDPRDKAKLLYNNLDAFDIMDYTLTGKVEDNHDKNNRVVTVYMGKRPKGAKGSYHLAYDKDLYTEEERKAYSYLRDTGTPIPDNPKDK

[2] = molecular target: T2, Heat shock factor protein 1 (Mus musculus, UniProt P38532); assay: inhibition of MG132-induced HSE-luciferase signal, confirmation, cell-based, NIH3T3, luminescence, dose retest (AID 2382); assay type: functional;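 also: NIH3T3 fibroblasts with HSF1-driven luciferase reporter stressed by proteasome inhibitor MG132; luminescence from HSF1-driven luciferase expression after 8 hours of MG132 stress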
T2 sequence (P38532 whole entry): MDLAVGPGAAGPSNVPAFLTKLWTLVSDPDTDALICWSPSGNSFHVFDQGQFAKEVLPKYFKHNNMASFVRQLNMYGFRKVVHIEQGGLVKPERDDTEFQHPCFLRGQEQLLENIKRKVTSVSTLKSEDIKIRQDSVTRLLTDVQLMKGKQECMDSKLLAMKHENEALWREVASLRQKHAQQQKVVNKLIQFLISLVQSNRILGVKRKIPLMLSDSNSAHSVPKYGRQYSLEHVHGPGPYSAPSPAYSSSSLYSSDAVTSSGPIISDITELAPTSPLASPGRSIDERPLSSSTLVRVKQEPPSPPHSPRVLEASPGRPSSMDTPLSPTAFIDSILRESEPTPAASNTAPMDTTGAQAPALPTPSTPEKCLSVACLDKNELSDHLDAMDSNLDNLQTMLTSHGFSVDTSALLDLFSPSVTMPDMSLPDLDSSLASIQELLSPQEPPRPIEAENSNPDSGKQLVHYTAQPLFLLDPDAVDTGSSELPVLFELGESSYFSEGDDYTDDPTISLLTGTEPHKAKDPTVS

Cytochrome P450 1A2 = molecular target: T3, Cytochrome P450 1A2 (Homo sapiens, UniProt P05177);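 also: PubChem cytochrome P450 panel assay, CYP1A2 panel member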
T3 sequence (P05177 whole entry): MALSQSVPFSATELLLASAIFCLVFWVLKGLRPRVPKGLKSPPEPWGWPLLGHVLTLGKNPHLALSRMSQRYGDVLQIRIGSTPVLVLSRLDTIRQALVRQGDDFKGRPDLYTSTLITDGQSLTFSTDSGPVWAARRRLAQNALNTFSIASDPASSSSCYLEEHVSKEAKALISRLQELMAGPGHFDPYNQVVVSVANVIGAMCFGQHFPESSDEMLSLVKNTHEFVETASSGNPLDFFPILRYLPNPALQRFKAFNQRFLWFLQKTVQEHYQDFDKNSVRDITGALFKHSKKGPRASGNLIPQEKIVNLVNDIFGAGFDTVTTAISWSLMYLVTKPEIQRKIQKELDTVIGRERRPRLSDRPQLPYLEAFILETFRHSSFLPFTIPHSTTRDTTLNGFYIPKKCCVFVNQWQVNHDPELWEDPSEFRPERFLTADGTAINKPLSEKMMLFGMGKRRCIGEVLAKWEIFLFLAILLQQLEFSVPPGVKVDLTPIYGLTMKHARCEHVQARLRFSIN

[3] = cytotoxicity toward NIH3T3 fibroblasts, dose response, counter-screen, cell-based, ATP luminescence, mouse fibroblasts (AID 2010); assay type: functional;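 also: cells exposed to compound for about 90 hours before reading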
[4] = inhibitors of intracellular T. cruzi replication, confirmation, NIH3T3 host cells, beta-gal luminescence (AID 2044); assay type: functional, cell-based;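 also: intracellular parasites grown in NIH/3T3 mouse fibroblasts as host cells; luminescent beta-galactosidase reporter signal from transgenic T. cruzi replicating inside host cells; inhibitors lower the luminescence signal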
Paired box protein Pax-8 = Paired box protein Pax-8 (Homo sapiens, UniProt Q06710); assay: inhibitors of PAX8-driven TPO luciferase reporter, dose response, RMG-I cells, cherry-pick (AID 687027); assay type: functional, cell-based;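 also: luciferase reporter driven by Pax8 target thyroperoxidase promoter measured by SteadyGlo luminescence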
Paired box protein Pax-8, sequence (Q06710 whole entry): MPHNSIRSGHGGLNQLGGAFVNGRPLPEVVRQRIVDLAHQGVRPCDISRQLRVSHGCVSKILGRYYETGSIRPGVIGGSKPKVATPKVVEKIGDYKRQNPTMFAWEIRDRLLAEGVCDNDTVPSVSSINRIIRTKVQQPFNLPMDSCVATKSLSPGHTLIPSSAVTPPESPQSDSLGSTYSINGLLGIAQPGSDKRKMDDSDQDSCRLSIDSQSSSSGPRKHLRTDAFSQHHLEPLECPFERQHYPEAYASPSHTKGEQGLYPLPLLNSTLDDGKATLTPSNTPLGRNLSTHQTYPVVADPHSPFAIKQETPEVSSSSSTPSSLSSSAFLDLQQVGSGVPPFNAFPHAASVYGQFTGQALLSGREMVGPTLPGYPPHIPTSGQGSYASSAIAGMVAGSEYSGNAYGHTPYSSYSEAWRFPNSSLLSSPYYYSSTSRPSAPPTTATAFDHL

Cc1nn(-c2ccccc2)c(Cl)c1C1C(C#N)=C(N)Oc2c1c(=O)oc1ccccc21 (stereo not drawn)
EC50 [1]: 0.197 µM (active)
EC50 (Streptococcus): 0.344 µM (active)

Cc1ccccc1NC(=O)CN1CCC(n2nnc3ccccc32)CC1
AC50 (Cytochrome P450 2D6): 0.01 µM (inconclusive)

COc1ccc(-c2ncn(CCC#N)c2[N+](=O)[O-])cc1
EC50 (Streptokinase A): > 150 µM (not active)
EC50 [1]: 3.52 µM (active)
EC50 (Streptococcus): 5.92 µM (active)

O=C(CN1C(=O)C2C3C=CC(C3)C2C1=O)OCC(=O)c1ccc(Br)cc1 (stereo not drawn)
EC50 [2]: > 195 µM (not active)

O=C(NCCCn1ccnc1)c1nn2c(C(F)(F)F)cc(-c3ccccc3)nc2c1Cl
EC50 (Streptokinase A): > 150 µM (not active)
EC50 [1]: > 150 µM (not active)
EC50 (Streptococcus): > 150 µM (not active)

c1ccc2c(NC3CCNCC3)nc(-c3ccoc3)nc2c1
AC50 (Cytochrome P450 2D6): 7.94 µM (inconclusive)

O=C(C1CCCN(S(=O)(=O)c2cccc3nsnc23)C1)N1CC=C(c2ccccc2)CC1 (stereo not drawn)
AC50 (Cytochrome P450 1A2): 14.1 µM (inconclusive)
AC50 (Cytochrome P450 2D6): 5.01 µM (inconclusive)

CSCC[C@H](NC(=O)N1CCn2c1nc1ccccc12)C(=O)NC1CC1
EC50 [2]: > 195 µM (not active)

CC1CCN(S(=O)(=O)c2ccc(NC(=O)CN3CCN(C)CC3)cc2)CC1
EC50 [3]: > 60 µM (not active)
EC50 [4]: 0.738 µM (active)

Oc1ccccc1/C=N/NC(=S)NC1CC2C=CC1C2 (stereo not drawn)
EC50 (Streptokinase A): > 16 µM (not active)
EC50 [1]: 5.04 µM (active)
EC50 (Streptococcus): > 16 µM (not active)

COc1cc(CNCc2cccs2)ccc1OCC(N)=O
AC50 (Cytochrome P450 1A2): 39.8 µM (inconclusive)

COc1ccccc1NC(=O)/C=C1\SCC(=O)N1C
EC50 [3]: > 60 µM (not active)
EC50 [4]: 0.949 µM (active)

COC(=O)[C@@]12C[C@@H](CC(=O)N3CCN(C(=O)c4ccco4)CC3)C(=O)N(Cc3ccco3)C1=CCC(C)(C)C2
AC50 (Paired box protein Pax-8): 2.44 µM (active)

C[C@H]1CCCCO[C@@H](CN(C)Cc2ccc(C(F)(F)F)cc2)[C@@H](C)CN([C@@H](C)CO)C(=O)c2cc(NS(=O)(=O)c3cccs3)ccc2O1
AC50 (Paired box protein Pax-8): 7.2 µM (active)

CCOC(=O)C1CCN(c2c(NCc3ccc(C(=O)Nc4ccc(C)cc4)cc3)c(=O)c2=O)CC1
EC50 [2]: > 195 µM (not active)

O=C(Cn1cnc2cc([N+](=O)[O-])ccc2c1=O)Nc1ccc2c(c1)CCC2
EC50 [3]: > 60 µM (not active)
EC50 [4]: 0.5 µM (active)

Cc1ccc(OCc2nnc(SC(C)C(=O)O)n2-c2ccccc2)cc1 (stereo not drawn)
EC50 [2]: > 195 µM (not active)

CCCc1nnc(NC(=O)CCC(=O)N2CCN(S(=O)(=O)c3ccc(F)cc3)CC2)s1
EC50 [2]: > 195 µM (not active)

COC(=O)c1ccc(N2CCC(c3cc(-c4ccc(OC)cc4)[nH]n3)CC2)c([N+](=O)[O-])c1
EC50 [1]: 3.87 µM (active)
EC50 (Streptococcus): 44.2 µM (active)

Cc1nc(Nc2ccc3c(c2)OCCO3)c2nnn(Cc3ccccc3Cl)c2n1
EC50 [3]: > 60 µM (not active)
EC50 [4]: 2.74 µM (active)
EC50 [2]: 3.43 µM (active)

CCOc1ccc(NC(=O)C2CCCN(c3nn4c(=O)cc(C)nc4s3)C2)cc1 (stereo not drawn)
EC50 [2]: > 195 µM (not active)

CC(C)/C(=N/Nc1ccccc1[N+](=O)[O-])c1ccccc1
EC50 (Streptokinase A): 18.4 µM (active)
EC50 [1]: 6.63 µM (active)
EC50 (Streptococcus): 52.5 µM (active)

COCC1=C(C(=O)OC(C)OC(=O)OC(C)C)N2C(=O)[C@@H](NC(=O)/C(=N\OC)c3csc(N)n3)[C@H]2SC1 (stereo partly drawn) [CEFPODOXIME PROXETIL]
EC50 [1]: 0.697 µM (active)
EC50 (Streptococcus): 0.987 µM (active)

CN(C)C(=O)c1ccc(-c2cncnc2NCc2ccccc2)cc1
AC50 (Cytochrome P450 1A2): 20 µM (inconclusive)

Cc1ccc(CN2CCN(Cc3ccccc3)CC2)cc1
EC50 [3]: > 60 µM (not active)
EC50 [4]: 0.143 µM (active)
